Data taken from US8853234B2, “Quinolone analogs and methods related thereto” (Senhwa Biosciences, Inc., priority 2007, dated 2014).

Columns and labels:
[1] = Cassette dosing oral pharmacokinetics in ICR mice; assay type: in vivo; conditions: ICR (IcrTac:ICR), mouse; cassette oral dose 25 mg/kg, female ICR mice, plasma, 0-8 h, none in table
Method: A cassette dosing procedure was utilized to determine pharmaceutical properties of compounds disclosed herein. In this procedure, compounds are selected for each cassette (i.e., cocktail) on the basis that mass spectrometric signals for each compound will not interfere with one another upon mass spectrometric analysis (e.g., will not overlap). The concentration of each compound in the dosing cassette often is about 20 mg/mL to achieve an oral dose level of 25 mg/kg in ICR mice. Aspects of the cassette dosing procedure are described hereafter.
Prepare 0.5 mL of 20 mg/mL dosing solution (in PBS or formulation vehicle) of 12 test compounds. Dilute a dosing solution 20 fold by transferring 10 μL of the stock solution into 190 μL acetonitrile containing 0.1% formic acid to achieve a final concentration of 1 mg/mL. Dilute further a 1 mg/mL solution 1,000 fold by transferring 1 μL of the stock solution into 999 μL acetonitrile containing 0.1% formic acid to achieve a final concentration of 1 μg/mL. Use the 1 μg/mL solution for mass spectrometric method development based on direct infusion. Determine parent/daughter mass spectra of each compound using multiple reaction monitoring (MRM). Compare parent/daughter mass spectra of each compound to assure no cross-reaction interference during LC-MS/MS measurements. Based on MRM mass spectra determine the composition of all cassettes.
Mix 250 μL of four prepared dosing solutions and an oral PK internal standard (20 mg/mL each) according to cassette design to achieve a final concentration of 4 mg/mL. Vortex cassettes rigorously and ultra-sonicate to obtain a clear solution or homogeneous suspension. Use the cassette solutions to dose animals by oral route of administration at 25 mg/kg.
All in vivo experiments follow protocols approved by the Animal Use and Care Committee. Female ICR mice (IcrTac:ICR), 8-10 weeks of age are obtained from Taconic (Hudson, N.Y.). Mice are housed on a 12 h/12 h light/dark cycle with ad libitum access to water and food. After a minimum two week acclimation period, the mice are randomized into groups with a minimum group size of four. The animals used for pharmacokinetic studies have a body-weight range of 25-35 g. A 25 mg/kg (4 mg/ml) dose of a cassette described in Example 1 is orally administered to mice that have been fasted overnight.
After compound administration, serial blood samples are collected via retro-orbital puncture with a capillary tube at various time points (15, 30 minutes and 1, 2, 4, 6 and 8 hours). The samples are transferred to a heparinized 0.5 mL microcentrifuge tube and placed on ice. Plasma is separated by centrifugation and samples are stored at −80° C. until assay.
Dilute a cassette dosing solution (4 mg/mL) four fold by transferring 25 μL of the stock solution into 75 μL of 50% acetonitrile containing 0.1% formic acid to achieve the concentration of 1 mg/mL. Dilute this stock solution further by serial dilutions to make 0.01, 0.1, 1 and 5 μg/mL working standard solutions.
Prepare 500 mL of 0.5 μg/mL solution of bioanalytical internal standard using 100% acetonitrile with 0.1% formic acid. Store the quenching solution in a tightly sealed bottle at 4° C.
Transfer 15 μL of blank mouse plasma to a 96 well plate and precipitate plasma proteins by pipetting of 120 μL of quenching solution to all plasma aliquots. Cover the plate with a matching plate mat and mix well for 30-60 seconds using a vertical multi-tube shaker.
Add 15 μL of the working standard solution of corresponding cassette to quenched plasma and vortex the plate for an additional 30-60 seconds. Then, centrifuge the plate at 4,000 rpm for 10 minutes at 4° C. Without disturbing the plasma protein pellet, transfer 120 μL of the supernatant to a new 96 well plate and dry the sample under nitrogen using a TurboVap® plate evaporator (Caliper Life Sciences; Hopkinton, Mass.). Reconstitute dried residues with 120 μL 20% acetonitrile containing 0.1% formic acid. […]

[2] = Pharmacokinetic evaluation IV bolus and oral (bioavailability) in ICR mice; assay type: in vivo; conditions: mouse, plasma, IV 5 mg/kg and PO 25 mg/kg, read-out: Bioavailability (% F)
Method: The pharmacokinetics properties of drugs are investigated in ICR mice following an intravenous (IV) bolus and oral (PO) doses of drug at 5 mg/kg and 25 mg/kg respectively. Blood samples are collected at predetermined times and the plasma separated. Plasma is separated from the blood samples collected at 5, 15 and 30 minutes and 1, 2, 4, 8 and 24 hours post-dose.
Drug levels are quantified by the LC/MS/MS method described below. Noncompartmental pharmacokinetic analysis is applied for intravenous administration. A linear trapezoidal rule is used to compute AUC(0-24) or AUC(0-8). The terminal t1/2 and C0 are calculated using the last three and the first three data points, respectively
Bioanalysis is performed using a Quattro Micro LC/MS/MS instrument in the MRM detection mode, with an internal standard (IS). Briefly, 15 μL plasma samples are prepared for analysis using protein precipitation with 120 μL of acetonitrile. The supernatants are transferred into a 96 well plate and subjected to LC-MS/MS analysis using a PHENOMENEX® Polar-RP HPLC column. The mobile phases are 10 mM NH4HCO3 in water (Solution-A) and 10 mM NH4HCO3 in methanol (Solution-B). The column is initially equilibrated with 25% Solution-B and followed with 100% Solution B over 5 minutes. The method has a dynamic range from 1 to 10,000 ng/mL. Quantitation of the analytes is performed in the batch mode with two bracketing calibration curves according to the bioanalytical sample list.

Row | SMILES | AUC(0-t) [1] | bioavailability [2]
1 | Cn1c2ccccc2n2c3nc(N4CCOCC4)c(F)cc3c(=O)c(C(=O)NCCN3CCCC3)c12 | 2000 ng·h/mL | –
2 | CN1CCCC1CCNC(=O)c1c(=O)c2cc(F)c(N3CCOCC3)nc2n2c3ccccc3n(C)c12 (centres unmarked) | 1190 ng·h/mL | 10.4%
3 | O=C(NCCN1CCCC1)c1c(=O)c2ccc(N3CCOCC3)nc2n2c1sc1ccccc12 | 2150 ng·h/mL | 10.7%
4 | CN1CCCC1CCNC(=O)c1c(=O)c2ccc(N3CCOCC3)nc2n2c1sc1ccccc12 (centres unmarked) | 2590 ng·h/mL | –
5 | Cn1c2ccccc2n2c3nc(N4CCOCC4)ccc3c(=O)c(C(=O)NCCN3CCCC3)c12 | 1260 ng·h/mL | –
6 | CN1CCCC1CCNC(=O)c1cn2c3c(c(N4CCOCC4)c(F)cc3c1=O)Oc1ccccc1-2 (centres unmarked) | 1430 ng·h/mL | –
7 | CN1CCCC1CCNC(=O)c1c(=O)c2cc(F)c(N3CCOCC3)nc2n2c1sc1ccccc12 (centres unmarked) | 3810 ng·h/mL | 22.4%
8 | O=C(NCCN1CCCC1)c1c(=O)c2cc(F)c(N3CCOCC3)nc2n2c1sc1ccccc12 | 2260 ng·h/mL | –
9 | CN1CCN(C(=O)c2c(=O)c3cc(F)c(N4CCOCC4)nc3n3c2sc2ccccc23)CC1 | 6160 ng·h/mL | 30.3%
10 | O=C(NCCN1CCC(O)C1)c1c(=O)c2cc(F)c(N3CCOCC3)nc2n2c1sc1ccccc12 (centres unmarked) | 1090 ng·h/mL | –
11 | CN1CCC(N(C)C(=O)c2c(=O)c3cc(F)c(N4CCOCC4)nc3n3c2sc2ccccc23)C1 (centres unmarked) | 2130 ng·h/mL | –
12 | O=C(NCCNCC1CCCO1)c1c(=O)c2ccc(N3CCOCC3)nc2n2c1sc1ccccc12 (centres unmarked) | 1900 ng·h/mL | 2%
13 | O=C(NCCN1CC=CC1)c1c(=O)c2ccc(N3CCOCC3)nc2n2c1sc1ccccc12 | 7940 ng·h/mL | 27.5%
14 | Cn1cncc1CNC(=O)c1c(=O)c2ccc(N3CCOCC3)nc2n2c1sc1ccccc12 | 2920 ng·h/mL | 12.4%
15 | O=C(c1c(=O)c2ccc(N3CCOCC3)nc2n2c1sc1ccccc12)N1CCN(c2ncccn2)CC1 | 15300 ng·h/mL | 31.1%
16 | O=C(c1c(=O)c2ccc(N3CCOCC3)nc2n2c1sc1ccccc12)N1CCN(c2ccccn2)CC1 | 1740 ng·h/mL | –
17 | O=C(NCCN1CC=CC1)c1cn2c3c(c(N4CCC(c5cnccn5)C4)c(F)cc3c1=O)Oc1cc3ccccc3cc1-2 (centres unmarked) | 8040 ng·h/mL | –
18 | O=C(NCCN1CC=CCC1)c1c(=O)c2ccc(N3CCOCC3)nc2n2c1sc1ccccc12 | 632 ng·h/mL | –
19 | O=C(NCCN1CC=CC1)c1c(=O)c2cc(F)c(N3CCOCC3)nc2n2c1sc1ccccc12 | 2000 ng·h/mL | –
20 | O=C(NCCNCCF)c1c(=O)c2ccc(N3CCOCC3)nc2n2c1sc1ccccc12 | 5020 ng·h/mL | –
21 | O=C(NCCNCC(F)(F)F)c1c(=O)c2ccc(N3CCOCC3)nc2n2c1sc1ccccc12 | 9450 ng·h/mL | –
22 | O=C(NCCNCCF)c1c(=O)c2cc(F)c(N3CCOCC3)nc2n2c1sc1ccccc12 | 2220 ng·h/mL | –

Row | SMILES | AUC(0-t) [1] | bioavailability [2]
23 | O=C(NCCn1ccnc1)c1c(=O)c2ccc(N3CCOCC3)nc2n2c1sc1ccccc12 | 4030 ng·h/mL | –
24 | Cn1ccnc1CNC(=O)c1c(=O)c2ccc(N3CCOCC3)nc2n2c1sc1ccccc12 | 5490 ng·h/mL | 17.9%
25 | O=C(NCCN1CCOCC1)c1c(=O)c2ccc(N3CCOCC3)nc2n2c1sc1ccccc12 | 2980 ng·h/mL | –
26 | Cn1ccnc1CNC(=O)c1c(=O)c2cc(F)c(N3CCOCC3)nc2n2c1sc1ccccc12 | 20300 ng·h/mL | 15.8%
27 | Cc1nccn1CCNC(=O)c1c(=O)c2ccc(N3CCOCC3)nc2n2c1sc1ccccc12 | 4380 ng·h/mL | –
28 | O=C(NNC1=NCCN1)c1c(=O)c2cc(F)c(N3CCOCC3)nc2n2c1sc1ccccc12 | 2430 ng·h/mL | 0.1%
29 | Cn1c2ccccc2n2c3nc(N4CCOCC4)c(F)cc3c(=O)c(C(=O)N3CCN4CCCC4C3)c12 (centres unmarked) | 3210 ng·h/mL | –
30 | CN1CCN(c2ccc3c(=O)c(C(=O)NCc4ccccn4)c4sc5ccccc5n4c3n2)CC1 | 51100 ng·h/mL | 41.4%
31 | O=C(NCCNC1CC1)c1c(=O)c2cc(F)c(N3CCOCC3)nc2n2c1sc1ccccc12 | 5150 ng·h/mL | –
32 | CN1CCCCC1CNC(=O)c1c(=O)c2ccc(N3CCOCC3)nc2n2c1sc1ccccc12 (centres unmarked) | 1050 ng·h/mL | –
33 | CN1CCCN(C(=O)c2c(=O)c3cc(F)c(N4CCOCC4)nc3n3c2sc2ccccc23)CC1 | 4230 ng·h/mL | –
34 | Cn1ccnc1CNC(=O)c1c(=O)c2cc(N3CCOCC3)nnc2n2c1sc1ccccc12 | 3780 ng·h/mL | –
35 | CN1CCCC(NC(=O)c2c(=O)c3cc(F)c(N4CCOCC4)nc3n3c2sc2ccccc23)C1 (centres unmarked) | 1030 ng·h/mL | –
36 | O=C(NCC1CCCN1)c1c(=O)c2cc(F)c(N3CCOCC3)nc2n2c1sc1ccccc12 (centres unmarked) | 1050 ng·h/mL | –
37 | CN1CCCCC1CNc1ccc2c(=O)c(C(=O)NCc3ccncc3)c3sc4ccccc4n3c2n1 (centres unmarked) | 790 ng·h/mL | –
38 | CN1CCCC1CNC(=O)c1c(=O)c2cc(F)c(N3CCOCC3)nc2n2c1sc1ccccc12 (centres unmarked) | 3960 ng·h/mL | –
39 | CN1CCN(c2nc3c(cc2F)c(=O)c(C(=O)NCc2cn(C)cn2)c2sc4ccccc4n23)CC1 | 45100 ng·h/mL | –
40 | O=C(NCCNC1CCC1)c1c(=O)c2ccc(N3CCOCC3)nc2n2c1sc1ccccc12 | 3180 ng·h/mL | –
41 | CN1CCN(c2ccc3c(=O)c(C(=O)NC4CC4)c4n(C)c5ccccc5n4c3n2)CC1 | 5200 ng·h/mL | –
42 | O=C(NCCNC1CC1)c1c(=O)c2ccc(N3CCOCC3)nc2n2c1sc1ccccc12 [drawing 604] | 5370 ng·h/mL | 43.3%
43 | Cc1cnc(CNC(=O)c2c(=O)c3ccc(N4CCN(C)CC4)nc3n3c2sc2ccccc23)cn1 [drawing 619] | 166000 ng·h/mL | –
